Values quoted from earlier work as cited in patent publication US4332794A, “6"-Deoxydibekacin, 4",6"-dideoxydibekacin and 1-N-aminoacyl derivatives thereof, and the production of these new compounds” (Zaidan Hojin Biseibutsu Kagaku Kenkyu Kai, priority 1979, dated 1982).

Key:
[1] = Japanese patent application No. 54733/79; cited from earlier work
bacteria = conditions: Japanese patent application No. 54733/79; cited from earlier work
[2] = test system: dibekacin-resistant bacteria; conditions: prior art; cited from earlier work

Compound	oto-toxicity [1]	antibacterial activity compared to amikacin (bacteria)	antibacterial activity [2]
C[C@@H]1C[C@H](N)[C@@H](O)[C@@H](O[C@@H]2[C@@H](O)[C@H](O[C@H]3O[C@H](CN)[C@@H](O)[C@H](O)[C@H]3O)[C@@H](N)C[C@H]2NC(=O)[C@@H](O)CCN)O1 [4",6"-dideoxyamikacin, 1-N-(L-4-amino-2-hydroxybutyryl)-4",6"-dideoxykanamycin A]	low oto-toxicity	antibacterial activity as high as that of amikacin	–
C[C@H]1O[C@H](O[C@@H]2[C@@H](O)[C@H](O[C@H]3O[C@H](CN)[C@@H](O)[C@H](O)[C@H]3O)[C@@H](N)C[C@H]2NC(=O)[C@@H](O)CCN)[C@H](O)[C@@H](N)[C@@H]1O [6"-deoxyamikacin, 1-N-(L-4-amino-2-hydroxybutyryl)-6"-deoxykanamycin A]	low oto-toxicity	antibacterial activity as high as that of amikacin	–
NCC[C@H](O)C(=O)N[C@@H]1C[C@H](N)[C@@H](O[C@H]2O[C@H](CN)CC[C@H]2N)[C@H](O)[C@H]1O[C@H]1O[C@H](CO)[C@@H](O)[C@H](N)[C@H]1O [1-N-(L-4-amino-2-hydroxybutyryl)-3',4'-dideoxykanamycin B]	–	–	effective against dibekacin-resistant bacteria
